Settings: Liquid, Drop weight

CCCCCCC [heptane] + O=C=O
interfacial tension [mN/m]
Settings	323 K	353 K
100 kPa	16.8	13.6
2100 kPa	–	10.6
3100 kPa	10.1	–
4000 kPa	–	7.8
4500 kPa	7.8	–
5500 kPa	5.7	–
5600 kPa	–	6.1
6900 kPa	–	4.7
7900 kPa	1.5	–
8500 kPa	–	2.9
9300 kPa	0.11	–
10300 kPa	–	0.8
11200 kPa	–	0.2

C [methane] + CCCCCCC
298.2 K
Settings	interfacial tension [mN/m]
100 kPa	19.8
2000 kPa	16.5
3000 kPa	15
4000 kPa	13.4
6000 kPa	10.1
8000 kPa	7.9
15000 kPa	2.3

N#N [nitrogen] + CCCCCCC
323.2 K
Settings	interfacial tension [mN/m]
100 kPa	17.6
3400 kPa	16
6900 kPa	13.7
10400 kPa	12

From the NIST ThermoML archive (doi:10.1021/je100825b)
